In ChEMBL document CHEMBL4024706 (Eur J Med Chem, 2017):

Assays:
Pfeiffer [1] = assay: Induction of apoptosis in human Pfeiffer cells assessed as induction of PARP cleavage after 48 hrs by immunoblot; format: functional, cell-based
[2] = molecular target: 3-phosphoinositide-dependent protein kinase 1 (Homo sapiens) (UniProt O15530); assay: Inhibition of wild-type human full length PDPK1 (M1 to Q556 residues) expressed in bacterial expression system assessed as residual activity at 1 uM by Kinomescan method relative to control
[3] = molecular target: Serine/threonine-protein kinase haspin (Homo sapiens) (UniProt Q8TF76); assay: Inhibition of wild-type human partial length HASPIN (I452 to K798 residues) expressed in mammalian expression system assessed as residual activity at 1 uM by Kinomescan method relative to control
[4] = molecular target: Serine/threonine-protein kinase 32C (Homo sapiens) (UniProt Q86UX6); assay: Inhibition of wild-type human partial length YANK3 (M68 to G486 residues) expressed in bacterial expression system assessed as residual activity at 1 uM by Kinomescan method relative to control
Chain of Serine/threonine-protein kinase 32C (Homo sapiens) (Q86UX6 whole entry, the tested form may be a part): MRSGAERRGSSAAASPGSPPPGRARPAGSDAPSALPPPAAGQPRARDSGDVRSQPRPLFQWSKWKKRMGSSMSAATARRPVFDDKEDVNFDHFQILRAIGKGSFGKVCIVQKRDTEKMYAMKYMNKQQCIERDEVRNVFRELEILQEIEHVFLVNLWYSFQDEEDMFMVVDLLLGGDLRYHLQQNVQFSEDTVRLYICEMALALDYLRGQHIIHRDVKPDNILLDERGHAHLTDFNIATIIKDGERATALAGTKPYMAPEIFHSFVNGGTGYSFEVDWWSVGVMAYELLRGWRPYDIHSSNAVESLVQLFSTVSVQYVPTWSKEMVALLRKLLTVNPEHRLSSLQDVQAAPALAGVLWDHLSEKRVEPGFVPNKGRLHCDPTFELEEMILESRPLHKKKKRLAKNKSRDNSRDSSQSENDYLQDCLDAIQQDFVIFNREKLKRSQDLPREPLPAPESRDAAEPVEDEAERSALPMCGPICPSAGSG

[5] = tested on: Epidermal growth factor receptor (Homo sapiens), P00533 [L858R]; assay: Inhibition of human partial length EGFR L858R mutant (R669 to V1011 residues) expressed in bacterial expression system assessed as residual activity at 1 uM by Kinomescan method relative to control
[6] = molecular target: Tyrosine-protein kinase Mer (Homo sapiens) (UniProt Q12866); assay: Inhibition of wild-type human partial length MERTK (R557 to L884 residues) expressed in bacterial expression system assessed as residual activity at 1 uM by Kinomescan method relative to control
Chain of Tyrosine-protein kinase Mer (Homo sapiens) (Q12866 whole entry, the tested form may be a part): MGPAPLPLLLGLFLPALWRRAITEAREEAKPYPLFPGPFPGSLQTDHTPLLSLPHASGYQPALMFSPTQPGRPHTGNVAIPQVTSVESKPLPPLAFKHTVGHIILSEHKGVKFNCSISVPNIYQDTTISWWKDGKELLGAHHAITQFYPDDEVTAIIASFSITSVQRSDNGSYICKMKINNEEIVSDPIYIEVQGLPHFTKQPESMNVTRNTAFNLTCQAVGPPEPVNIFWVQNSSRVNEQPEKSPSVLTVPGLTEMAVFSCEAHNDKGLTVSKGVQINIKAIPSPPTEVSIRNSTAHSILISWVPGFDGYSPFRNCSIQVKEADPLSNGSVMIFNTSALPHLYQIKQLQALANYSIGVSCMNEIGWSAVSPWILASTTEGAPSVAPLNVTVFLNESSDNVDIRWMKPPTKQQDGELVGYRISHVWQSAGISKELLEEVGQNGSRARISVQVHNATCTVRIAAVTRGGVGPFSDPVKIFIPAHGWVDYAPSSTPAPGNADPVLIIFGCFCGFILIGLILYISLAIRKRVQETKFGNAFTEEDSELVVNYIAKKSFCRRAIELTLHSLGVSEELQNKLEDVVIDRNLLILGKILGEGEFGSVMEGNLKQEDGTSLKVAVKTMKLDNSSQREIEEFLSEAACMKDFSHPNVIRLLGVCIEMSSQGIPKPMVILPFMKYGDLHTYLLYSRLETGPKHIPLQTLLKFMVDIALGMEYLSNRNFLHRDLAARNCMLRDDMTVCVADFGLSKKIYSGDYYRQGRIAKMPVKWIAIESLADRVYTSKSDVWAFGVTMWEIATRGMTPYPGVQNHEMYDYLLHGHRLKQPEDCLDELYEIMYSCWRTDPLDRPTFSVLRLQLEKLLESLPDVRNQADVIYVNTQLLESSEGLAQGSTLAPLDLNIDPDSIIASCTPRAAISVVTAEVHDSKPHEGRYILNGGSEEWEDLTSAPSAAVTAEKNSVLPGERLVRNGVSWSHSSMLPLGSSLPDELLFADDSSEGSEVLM

[7] = molecular target: Dual specificity mitogen-activated protein kinase kinase 5 (Homo sapiens) (UniProt Q13163); assay: Inhibition of wild-type human partial length MEK5 (L98 to P448 residues) expressed in mammalian expression system assessed as residual activity at 1 uM by Kinomescan method relative to control
[8] = molecular target: Myosin-IIIa (Homo sapiens) (UniProt Q8NEV4); assay: Inhibition of wild-type human partial length MYO3A (M1 to K338 residues) expressed in bacterial expression system assessed as residual activity at 1 uM by Kinomescan method relative to control
[9] = molecular target: Serine/threonine-protein kinase MRCK gamma (Homo sapiens) (UniProt Q6DT37); assay: Inhibition of wild-type human partial length DMPK2 (S46 to S408 residues) expressed in bacterial expression system assessed as residual activity at 1 uM by Kinomescan method relative to control
[10] = molecular target: Mitogen-activated protein kinase kinase kinase 13 (Homo sapiens) (UniProt O43283); assay: Inhibition of wild-type human full length LZK (M1 to W966 residues) expressed in mammalian expression system assessed as residual activity at 1 uM by Kinomescan method relative to control
Chain of Mitogen-activated protein kinase kinase kinase 13 (Homo sapiens) (O43283 whole entry, the tested form may be a part): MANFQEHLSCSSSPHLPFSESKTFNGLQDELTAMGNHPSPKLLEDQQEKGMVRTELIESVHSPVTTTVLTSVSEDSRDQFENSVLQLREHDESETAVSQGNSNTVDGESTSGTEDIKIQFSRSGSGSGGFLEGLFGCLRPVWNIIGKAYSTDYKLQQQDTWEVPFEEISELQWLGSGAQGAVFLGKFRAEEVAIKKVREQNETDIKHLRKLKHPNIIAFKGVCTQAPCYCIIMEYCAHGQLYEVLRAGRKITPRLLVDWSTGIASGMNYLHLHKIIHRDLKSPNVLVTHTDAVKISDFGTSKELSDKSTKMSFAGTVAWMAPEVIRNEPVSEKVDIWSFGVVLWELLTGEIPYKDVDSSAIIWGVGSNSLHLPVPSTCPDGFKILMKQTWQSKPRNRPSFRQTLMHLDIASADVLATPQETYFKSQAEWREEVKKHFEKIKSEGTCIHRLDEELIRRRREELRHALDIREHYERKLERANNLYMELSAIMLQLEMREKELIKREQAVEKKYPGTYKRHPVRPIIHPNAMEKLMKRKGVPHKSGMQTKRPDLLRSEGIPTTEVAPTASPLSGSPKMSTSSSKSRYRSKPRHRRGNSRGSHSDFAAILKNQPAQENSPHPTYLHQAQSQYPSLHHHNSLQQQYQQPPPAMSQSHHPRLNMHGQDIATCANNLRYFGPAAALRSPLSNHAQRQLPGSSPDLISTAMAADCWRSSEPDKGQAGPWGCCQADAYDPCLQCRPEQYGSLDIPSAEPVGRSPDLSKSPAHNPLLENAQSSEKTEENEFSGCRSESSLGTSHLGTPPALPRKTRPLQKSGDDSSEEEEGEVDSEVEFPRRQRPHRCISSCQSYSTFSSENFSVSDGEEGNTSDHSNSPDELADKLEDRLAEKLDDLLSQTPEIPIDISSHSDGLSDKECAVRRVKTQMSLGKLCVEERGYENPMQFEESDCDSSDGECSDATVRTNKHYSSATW

Pfeiffer [11] = assay: Growth inhibition of human Pfeiffer cells; format: functional; settings: Homo sapiens, Pfeiffer
[12] = molecular target: Ribosomal protein S6 kinase alpha-4 (Homo sapiens) (UniProt O75676); assay: Inhibition of wild-type human partial length N-terminal RPS6KA4 kinase domain 1 expressed in bacterial expression system assessed as residual activity at 1 uM by Kinomescan method relative to control
Chain of Ribosomal protein S6 kinase alpha-4 (Homo sapiens) (O75676 whole entry, looked up, the tested form may be a part): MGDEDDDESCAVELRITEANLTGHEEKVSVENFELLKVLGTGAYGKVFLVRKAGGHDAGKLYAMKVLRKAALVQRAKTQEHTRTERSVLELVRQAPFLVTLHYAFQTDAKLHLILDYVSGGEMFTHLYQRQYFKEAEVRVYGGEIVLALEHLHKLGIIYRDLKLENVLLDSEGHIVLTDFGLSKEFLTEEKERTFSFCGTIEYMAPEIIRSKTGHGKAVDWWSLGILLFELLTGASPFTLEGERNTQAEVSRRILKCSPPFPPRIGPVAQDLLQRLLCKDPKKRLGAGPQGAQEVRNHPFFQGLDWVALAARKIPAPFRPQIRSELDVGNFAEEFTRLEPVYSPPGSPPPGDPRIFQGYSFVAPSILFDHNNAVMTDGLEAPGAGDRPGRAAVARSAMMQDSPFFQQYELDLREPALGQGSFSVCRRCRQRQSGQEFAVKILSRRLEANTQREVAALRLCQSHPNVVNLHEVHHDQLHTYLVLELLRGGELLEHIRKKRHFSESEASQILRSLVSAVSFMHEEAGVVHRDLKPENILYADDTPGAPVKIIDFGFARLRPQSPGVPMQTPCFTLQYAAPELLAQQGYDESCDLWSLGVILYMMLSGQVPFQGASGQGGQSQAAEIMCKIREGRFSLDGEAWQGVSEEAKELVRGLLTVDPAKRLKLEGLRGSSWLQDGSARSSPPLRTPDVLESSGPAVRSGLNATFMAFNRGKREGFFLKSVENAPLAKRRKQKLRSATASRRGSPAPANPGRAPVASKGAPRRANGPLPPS

[13] = molecular target: Death-associated protein kinase 3 (Homo sapiens) (UniProt O43293); assay: Inhibition of wild-type human partial length DAPK3 (M1 to A277 residues) expressed in bacterial expression system assessed as residual activity at 1 uM by Kinomescan method relative to control
Chain of Death-associated protein kinase 3 (Homo sapiens) (O43293 whole entry, looked up, the tested form may be a part): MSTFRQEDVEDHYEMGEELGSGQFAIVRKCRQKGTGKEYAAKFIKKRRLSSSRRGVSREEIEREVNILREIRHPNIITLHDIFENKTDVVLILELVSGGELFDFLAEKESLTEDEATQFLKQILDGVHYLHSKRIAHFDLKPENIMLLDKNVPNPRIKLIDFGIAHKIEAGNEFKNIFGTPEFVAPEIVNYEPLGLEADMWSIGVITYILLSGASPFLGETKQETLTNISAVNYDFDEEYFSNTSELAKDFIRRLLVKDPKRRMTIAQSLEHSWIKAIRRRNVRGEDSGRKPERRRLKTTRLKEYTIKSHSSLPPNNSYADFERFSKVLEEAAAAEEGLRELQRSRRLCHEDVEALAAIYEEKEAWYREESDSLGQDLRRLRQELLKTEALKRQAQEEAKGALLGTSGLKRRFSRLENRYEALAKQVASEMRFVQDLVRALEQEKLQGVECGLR

[14] = tested on: Epidermal growth factor receptor (Homo sapiens), P00533 [UNDEFINED MUTATION]; assay: Inhibition of human partial length EGFR L747-E749del/A750P mutant expressed in bacterial expression system assessed as residual activity at 1 uM by Kinomescan method relative to control
[15] = tested on: Phosphatidylinositol 4,5-bisphosphate 3-kinase catalytic subunit alpha isoform (Homo sapiens), P42336 [E542K]; assay: Inhibition of human partial length PIK3CA E542K mutant (R108 to N1068 residues) expressed in mammalian expression system assessed as residual activity at 1 uM by Kinomescan method relative to control
[16] = molecular target: TGF-beta receptor type-2 (Homo sapiens) (UniProt P37173); assay: Inhibition of wild-type human partial length TGFBR2 (I218 to K567 residues) expressed in bacterial expression system assessed as residual activity at 1 uM by Kinomescan method relative to control
[17] = molecular target: Serine/threonine-protein kinase MRCK alpha (Homo sapiens) (UniProt Q5VT25); assay: Inhibition of wild-type human partial length MRCKA (L57 to V418 residues) expressed in bacterial expression system assessed as residual activity at 1 uM by Kinomescan method relative to control
[18] = molecular target: Ephrin type-A receptor 4 (Homo sapiens) (UniProt P54764); assay: Inhibition of wild-type human partial length EPHA4 (T601 to R897 residues) expressed in bacterial expression system assessed as residual activity at 1 uM by Kinomescan method relative to control
[19] = molecular target: Eukaryotic translation initiation factor 2-alpha kinase 1 (Homo sapiens) (UniProt Q9BQI3); assay: Inhibition of wild-type human partial length EIF2AK1 (Q147 to E603 residues) expressed in mammalian expression system assessed as residual activity at 1 uM by Kinomescan method relative to control
[20] = molecular target: Serine/threonine-protein kinase 33 (Homo sapiens) (UniProt Q9BYT3); assay: Inhibition of wild-type human full length STK33 (M1 to L514 residues) expressed in bacterial expression system assessed as residual activity at 1 uM by Kinomescan method relative to control
[21] = molecular target: Casein kinase I isoform gamma-3 (Homo sapiens) (UniProt Q9Y6M4); assay: Inhibition of wild-type human full length CSNK1G3 (M1 to K447 residues) expressed in bacterial expression system assessed as residual activity at 1 uM by Kinomescan method relative to control
[22] = molecular target: Mitogen-activated protein kinase kinase kinase 2 (Homo sapiens) (UniProt Q9Y2U5); assay: Inhibition of wild-type human partial length MAP3K2 (S315 to H619 residues) expressed in mammalian expression system assessed as residual activity at 1 uM by Kinomescan method relative to control
[23] = molecular target: Serine/threonine-protein kinase Nek4 (Homo sapiens) (UniProt P51957); assay: Inhibition of wild-type human full length NEK4 (M1 to F841 residues) expressed in mammalian expression system assessed as residual activity at 1 uM by Kinomescan method relative to control
[24] = molecular target: SNF-related serine/threonine-protein kinase (Homo sapiens) (UniProt Q9NRH2); assay: Inhibition of wild-type human partial length SNRK (M1 to E339 residues) expressed in mammalian expression system assessed as residual activity at 1 uM by Kinomescan method relative to control
Chain of SNF-related serine/threonine-protein kinase (Homo sapiens) (Q9NRH2 whole entry, the tested form may be a part): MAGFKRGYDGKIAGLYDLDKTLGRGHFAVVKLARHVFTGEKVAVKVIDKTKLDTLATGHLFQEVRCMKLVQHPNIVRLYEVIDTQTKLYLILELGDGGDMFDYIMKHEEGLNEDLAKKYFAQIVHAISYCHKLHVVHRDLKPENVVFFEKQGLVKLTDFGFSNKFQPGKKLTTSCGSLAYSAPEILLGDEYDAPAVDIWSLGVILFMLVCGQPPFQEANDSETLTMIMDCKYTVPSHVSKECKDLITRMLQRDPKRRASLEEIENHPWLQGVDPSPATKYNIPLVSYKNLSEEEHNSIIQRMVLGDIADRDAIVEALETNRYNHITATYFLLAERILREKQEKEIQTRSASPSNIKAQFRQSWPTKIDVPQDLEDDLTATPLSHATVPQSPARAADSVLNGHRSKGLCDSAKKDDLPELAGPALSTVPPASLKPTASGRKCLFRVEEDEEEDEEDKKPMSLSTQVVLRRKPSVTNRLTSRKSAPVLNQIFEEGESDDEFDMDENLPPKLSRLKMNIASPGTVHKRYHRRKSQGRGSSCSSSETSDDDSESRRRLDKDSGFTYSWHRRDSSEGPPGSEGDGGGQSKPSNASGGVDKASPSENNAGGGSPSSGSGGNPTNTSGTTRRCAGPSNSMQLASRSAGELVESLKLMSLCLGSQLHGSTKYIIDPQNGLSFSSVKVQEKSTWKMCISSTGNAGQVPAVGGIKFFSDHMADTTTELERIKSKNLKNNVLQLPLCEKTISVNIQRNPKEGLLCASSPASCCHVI

[25] = molecular target: Cyclin-dependent kinase 8 (Homo sapiens) (UniProt P49336); assay: Inhibition of wild-type human partial length CDK8 (M1 to T360 residues) expressed in bacterial expression system assessed as residual activity at 1 uM by Kinomescan method relative to control
Chain of Cyclin-dependent kinase 8 (Homo sapiens) (P49336 whole entry, the tested form may be a part): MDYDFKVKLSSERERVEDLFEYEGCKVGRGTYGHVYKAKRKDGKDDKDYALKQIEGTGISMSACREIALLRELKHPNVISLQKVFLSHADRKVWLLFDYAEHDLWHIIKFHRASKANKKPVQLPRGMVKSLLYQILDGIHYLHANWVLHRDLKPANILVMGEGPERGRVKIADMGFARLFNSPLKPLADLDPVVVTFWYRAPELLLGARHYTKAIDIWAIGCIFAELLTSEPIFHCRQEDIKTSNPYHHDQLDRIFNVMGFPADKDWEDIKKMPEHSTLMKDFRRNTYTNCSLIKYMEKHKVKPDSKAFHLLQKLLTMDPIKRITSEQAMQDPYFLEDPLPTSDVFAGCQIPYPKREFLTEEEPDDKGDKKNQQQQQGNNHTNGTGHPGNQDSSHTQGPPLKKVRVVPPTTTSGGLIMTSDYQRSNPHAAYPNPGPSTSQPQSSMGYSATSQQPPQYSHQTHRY

[26] = molecular target: Serine/threonine-protein kinase Chk2 (Homo sapiens) (UniProt O96017); assay: Inhibition of wild-type human partial length CHEK2 (S253 to E574 residues) expressed in bacterial expression system assessed as residual activity at 1 uM by Kinomescan method relative to control

With C=CC(=O)Nc1cc(Nc2cc(-c3cccc(NC(=O)c4ccc(C(C)(C)C)cc4)c3C)cn(C)c2=O)ccc1C(=O)N1CCOCC1 the Activity (Pfeiffer [1]) was “Dose-dependent effect”, the Activity [2] was 90% and the Activity [3] was 54%. For the same compound, the Activity [4] was 97%, the Activity [5] was 100% and the Activity [6] was 100%. The Activity [7] was 98%, the Activity [8] was 95% and the Activity [9] was 100%. The Activity [10] was 98%, the GI50 (Pfeiffer [11]) was 4.5 µM and the Activity [12] was 97%. For the same compound, the Activity [13] was 100%, the Activity [14] was 94% and the Activity [15] was 94%. It also gave an Activity [16] of 90%, an Activity [17] of 98% and an Activity [18] of 83%. For the same compound, the Activity [19] was 84%, the Activity [20] was 100% and the Activity [21] was 90%. It also gave an Activity [22] of 89%, an Activity [23] of 100% and an Activity [24] of 80%. The Activity [25] was 100% and the Activity [26] was 87%.
